Measurements reported in patent publication US12383631B2, “Immune antigen specific IL-18 immunocytokines and uses thereof” (Bright Peak Therapeutics AG, priority 2022, dated 2025).

Columns and labels:
[1] = tested on: PD-1 positive (transduced) KG-1 cells; assay: IFN gamma secretion assay in PD-1 transduced KG-1 cells (Example 11); assay type: cell-based, human; details: ratio of EC50 in PD-1 positive and parental KG-1 cells
Description: The KG-1 cell line was used to generate a PD-1 expressing cell line and furthermore, to measure IFNγ release upon incubation with TL-18 variants and corresponding TL-18 immunocytokines.
PD-1 expressing cell line generation: Briefly, KG-1 cells were transduced using lentiviral particles carrying the human PD-1 gene (PDCD1 NM_005018; Origene, CAT #: RC210364L3V) at a MOI (Multiplicity of Infection) of 30. Spinfection was performed at 1260 g during 90 min at 37° C. in the presence of 5 μg/ml of Polybrene and 10 mM of HEPES in complete culture media (RPMI, 10% FBS, 1% L-Glutamine). Five days after transduction, puromycin at a final concentration of 1 μg/ml was added to select for PD-1 positive cells. For culture maintenance, puromycin concentration was decreased to 0.5 μg/ml. Stable and homogenous expression of PD-1 was verified by surface staining (BD Pharmingen, #557860).
IFNγ release was assessed in PD-1 positive (transduced) KG-1 cells, as well as in the parental PD-1 negative cells. 0.5×10^5 cells were seeded into a 96-well U-bottom plate in culture media (RPMI, 10% FBS, […]) and stimulated with IL-18 variants/ICs for 20-24 h. The test items were diluted to 100 nM in culture medium, followed by 7 10-fold serial dilutions. The lowest concentration assessed was […]. After incubation, IFNγ release was measured using the LEGENDplex custom human mix and match KIT (Biolegend LEGENDplex™ Human IFN-γ Capture Bead B5, 13×#740942, LEGENDplex™ P 1 Essential Immune Response Panel Detection Abs, #740931, LEGENDplex™ Buffer Set A #740368). To this end, cell culture supernatant was collected and diluted 1:1 with Assay Buffer. Fluorescence measurements were done with a Quanteon Flow Cytometer from Acea Biosciences. For analysis, MFI values (median fluorescence intensity) were exported and plotted against concentrations used. The EC50 values (half maximal effective concentration) were calculated based on a variable slope and four parameter analysis using GraphPad PRISM software version 9.

[2] = target: T1, human IL-18 binding protein isoform a (IL-18BPa) (Homo sapiens, UniProt O95998); assay: Cellular IL-18 Binding protein resistance assay in NK-92 cells (Example 13); assay type: cell-based; details: NK92 cells, IL-18 analyte 1 nM final, IL-18BPa titrated, 1 ng/ml IL-12; read-out: IC50 IL-18BP-mediated inhibition of IFNγ secretion
T1 sequence (O95998 31-194): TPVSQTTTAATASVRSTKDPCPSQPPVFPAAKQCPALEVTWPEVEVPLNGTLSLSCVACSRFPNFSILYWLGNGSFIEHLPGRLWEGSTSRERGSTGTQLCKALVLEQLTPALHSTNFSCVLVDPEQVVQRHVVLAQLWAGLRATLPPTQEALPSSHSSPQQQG
Description: The NK cell line NK-92 derived from a patient with lymphoma (ATCC, Cat #CRL-2407) was cultured in aMEM medium supplemented with 20% FCS-Glutamax, 25 μM B-mercaptoEthanol, and 100 IU/ml of recombinant Human Interleukin-2 (TL-2). On the day of experiment, cells were harvested and washed with aMEM medium without IL-2. After counting, cells were seeded at 100 000 cells/well in a 384 well titer plate and incubated at 37° C./5% CO2. Sixteen 2-fold serial dilutions of Fc fused human IL-18 binding protein isoform a (IL-18BPa; R&D systems, Cat #119-BP) were prepared in aMEM medium-1 ng/ml IL-12 containing 2 nM of each IL-18 variants and were added to the NK-92 cells. Final IL-18 analytes concentration was 1 nM and final IL-18BPa concentrations ranged from to 566 nM down to 17 pM.
After 16-20 h incubation at 37° C./5% CO2, 5 μl of supernatant were carefully transferred to a 384 microwells OPTIplate (Perkin Elmer; Cat #6007270) and Interferon-gamma (IFNγ) levels measured using the Human IFNγ AlphaLISA Assay Kit (Perkin Elmer, Cat #AL217C). Briefly, 10 μl of 2.5× AlphaLISA Anti-IFNγ acceptor beads and biotinylated Antibody Anti-IFNγ mix were added to the 5 μl of NK-92 supernatants and incubated for 1 h at room temperature under shaking. Under subdued light, 2.5 μl of 2× streptavidin (SA) donor beads were pipetted in each well and incubated for 30 min at room temperature under shaking. AlphaLisa signal was then measured on an Enspire plate reader (Perkin Elmer) using 680 and 615 nm as excitation and emission wavelengths respectively. Half maximal inhibitory concentration (IC50) was calculated based on a variable slope, four parameter analysis using GraphPad PRISM software.

**Q.** Which results are given for “SEQ ID NO: 1: native IL-18 wild-type sequence [reference compound]”?
**A.** PD-1^pos/PD-1^neg EC50 ratio [1]: 1.298; IC50 [2]: 0.781 nM

**Q.** How did the “PD-1^pos/PD-1^neg EC50 ratio” value [1] turn out when “SEQ ID NO: 31: IL-18 polypeptide: C38A, C76A, C127A” was run?
**A.** 1.2

**Q.** And the IC50 [2]?
**A.** 0.282 nM
